Data: US7683034B2, “Use of enzyme inhibitors of aminopeptidase N and/or dipeptidylpeptidase IV” (IMTM GmbH, priority 2002, dated 2010)

System: immortalized human sebaceous cell line SZ95
Assay: Inhibition of DNA synthesis (3[H]-thymidine incorporation) of SZ95 sebaceous cells
Type: cell-based
Details: 48 h incubation with inhibitor, then 6 h 3[H]-methyl-thymidine incorporation; dose-dependent (FIG. 3)
Protocol: SZ95 cells were 48 h incubated with the above-mentioned inhibitors and subsequently the DNA synthesis was determined by the measurement of the ^ 3[H]-Thymidine incorporation as described in Reinhold et al. (Reinhold, D. et al.: Inhibitors of dipeptidyl peptidase IV induce secretion of transforming growth factor β1 in PWM-stimulated PBMNC and T-cells; Immunology, 1997, 91; 354-360).
The cells were 48 h incubated with inhibitors in the above-mentioned concentrations. Subsequently ^3[H]-Methyl-thymidin was added to the culture medium. After 6 further hours the amount of ^3[H]-Thymidine incorporated in the DNA was measured.

Row | SMILES | DNA synthesis of the immortalized human sebaceous cell line SZ95
1 | N[C@@H](CCCCNC(=O)OCc1ccc([N+](=O)[O-])cc1)C(=O)N1CCSC1 [Lys[Z(NO2)]-thiazolidide] | inhibited
2 | CCCCC[C@H](CC(=O)NO)C(=O)N[C@H](C(=O)N1CCC[C@H]1CO)C(C)C [actinonin] | inhibited
